Patent publication US20240132484A1, “BROAD SPECTRUM ANTIVIRAL COMPOUNDS TARGETING THE SKI COMPLEX” (priority 2020, published 2024)
Values joined by “and” are separate entries in the source; they are usually repeats but may differ in a detail not shown here. Equal entries are not always repeated. Where two headings read alike, the source gives them in different places.

How the values were obtained:
[1] = tested on: cells (nuclei count); settings: for Toxicity Data, Average, Mean: average of Exp 1-3 (SMW475, SMW477, SMW478)
[2] = tested on: SARS2; assay type: cell-based, SARS-CoV-2; settings: for Percentage Infection Relative to Appropriate DMSO Control with Avg Background Subtraction: Greiner Celigo plates; for Infection Data, Average, Mean: average of Exp 1-3 (SMW475, SMW477, SMW478)

With CCN(CC)CCN(Cc1ccccc1)Cc1ccccn1 [SILCS33] the “Relative cell count to DMSO controls, Average 1 μM” value ([1]; 1 μM, toxicity data, 100=DMSO control) was 118.72, the “Relative cell count to DMSO controls, Average 5 μM” value ([1]; 5 μM, toxicity data, 100=DMSO control) was 94.18 and the “Relative cell count to DMSO controls, Average 10 μM” value ([1]; 10 μM, toxicity data, 100=DMSO control) was 80.17. For the same compound, the “Relative cell count to DMSO controls, Average 25 μM” value ([1]; 25 μM, toxicity data, 100=DMSO control) was 85.8, the “Relative cell count to DMSO controls, Average 50 μM” value ([1]; 50 μM, toxicity data, 100=DMSO control) was 59.2 and the “Toxicity Data, Average, Mean” value ([1]; n 9, 1 uM) was 118.72%. For the same compound, the “Toxicity Data, Average, Mean” value ([1]; n 9, 5 uM) was 94.18%, the “Toxicity Data, Average, Mean” value ([1]; n 9, 10 uM) was 80.17% and the “Toxicity Data, Average, Mean” value ([1]; n 9, 25 uM) was 85.80%. The “Toxicity Data, Average, Mean” value ([1]; n 9, 50 uM) was 59.20%, the “Relative cell count to DMSO controls, Average (for correlation analysis)” value ([1]; average value over the 5 tested concentrations (1 to 50 uM)) was 87.61 and the “Percentage Infection Relative to Appropriate DMSO Control with Avg Background Subtraction” value ([2]; Exp 1 (SMW475), 1 uM) was 53.62% and 101.44% and 86.72%. The “Percentage Infection Relative to Appropriate DMSO Control with Avg Background Subtraction” value ([2]; Exp 1 (SMW475), 5 uM) was 69.33% and 82.60% and 84.98%, the “Percentage Infection Relative to Appropriate DMSO Control with Avg Background Subtraction” value ([2]; Exp 1 (SMW475), 10 uM) was 79.81% and 90.19% and 84.97% and the “Percentage Infection Relative to Appropriate DMSO Control with Avg Background Subtraction” value ([2]; Exp 1 (SMW475), 50 uM) was 52.39% and 69.09% and 65.56%. The “Percentage Infection Relative to Appropriate DMSO Control with Avg Background Subtraction” value ([2]; Exp 2 (SMW477), 1 uM) was 120.88% and 113.91% and 111.55%, the “Percentage Infection Relative to Appropriate DMSO Control with Avg Background Subtraction” value ([2]; Exp 2 (SMW477), 5 uM) was 128.80% and 118.55% and 121.74% and the “Percentage Infection Relative to Appropriate DMSO Control with Avg Background Subtraction” value ([2]; Exp 2 (SMW477), 10 uM) was 114.36% and 136.38% and 130.63%. For the same compound, the “Percentage Infection Relative to Appropriate DMSO Control with Avg Background Subtraction” value ([2]; Exp 2 (SMW477), 25 uM) was 73.62% and 97.76% and 95.99%, the “Percentage Infection Relative to Appropriate DMSO Control with Avg Background Subtraction” value ([2]; Exp 2 (SMW477), 50 uM) was 31.41% and 36.50% and 41.52% and the “Percentage Infection Relative to Appropriate DMSO Control with Avg Background Subtraction” value ([2]; Exp 3 (SMW478), 5 uM) was 121.27% and 137.96% and 122.71%. For the same compound, the “Percentage Infection Relative to Appropriate DMSO Control with Avg Background Subtraction” value ([2]; Exp 3 (SMW478), 10 uM) was 159.81% and 126.46% and 162.16%, the “Percentage Infection Relative to Appropriate DMSO Control with Avg Background Subtraction” value ([2]; Exp 3 (SMW478), 25 uM) was 126.24% and 109.99% and 117.46% and the “Percentage Infection Relative to Appropriate DMSO Control with Avg Background Subtraction” value ([2]; Exp 3 (SMW478), 50 uM) was 71.82% and 89.49% and 84.99%. For the same compound, the “Percentage Inhibition Average 1 μM” value ([2]; SARS2, 1 μM) was 28.78%, the “Screening data (Relative infection to DMSO controls) Average 1 μM” value ([2]; SARS2, 1 μM, 100=DMSO control) was 71.22 and the “Percentage Inhibition Average 5 μM” value ([2]; SARS2, 5 μM) was −9.77%. For the same compound, the “Screening data (Relative infection to DMSO controls) Average 5 μM” value ([2]; SARS2, 5 μM, 100=DMSO control) was 109.77, the “Percentage Inhibition Average 10 μM” value ([2]; SARS2, 10 μM) was −20.53% and the “Screening data (Relative infection to DMSO controls) Average 10 μM” value ([2]; SARS2, 10 μM, 100=DMSO control) was 120.53. For the same compound, the “Percentage Inhibition Average 25 μM” value ([2]; SARS2, 25 μM) was 24.68%, the “Screening data (Relative infection to DMSO controls) Average 25 μM” value ([2]; SARS2, 25 μM, 100=DMSO control) was 75.32 and the “Percentage Inhibition Average 50 μM” value ([2]; SARS2, 50 μM) was 39.69%. The “Screening data (Relative infection to DMSO controls) Average 50 μM” value ([2]; SARS2, 50 μM, 100=DMSO control) was 60.31, the “Average (relative infection to DMSO over the 5 tested concentrations)” value ([2]; SARS2, average over 1 to 50 uM, 100=DMSO control) was 87.43 and the “Infection Data, Average, Mean” value ([2]; n 9, 1 uM) was 71.22%. The “Infection Data, Average, Mean” value ([2]; n 9, 5 uM) was 109.77%, the “Infection Data, Average, Mean” value ([2]; n 9, 10 uM) was 120.53% and the “Infection Data, Average, Mean” value ([2]; n 9, 25 uM) was 75.32%. For the same compound, the “Infection Data, Average, Mean” value ([2]; n 9, 50 uM) was 60.31%.
